Broadly, the IC50 is the point on the concentration scale where inhibition reaches its midpoint.

T1 sequence (P08581 25-1390): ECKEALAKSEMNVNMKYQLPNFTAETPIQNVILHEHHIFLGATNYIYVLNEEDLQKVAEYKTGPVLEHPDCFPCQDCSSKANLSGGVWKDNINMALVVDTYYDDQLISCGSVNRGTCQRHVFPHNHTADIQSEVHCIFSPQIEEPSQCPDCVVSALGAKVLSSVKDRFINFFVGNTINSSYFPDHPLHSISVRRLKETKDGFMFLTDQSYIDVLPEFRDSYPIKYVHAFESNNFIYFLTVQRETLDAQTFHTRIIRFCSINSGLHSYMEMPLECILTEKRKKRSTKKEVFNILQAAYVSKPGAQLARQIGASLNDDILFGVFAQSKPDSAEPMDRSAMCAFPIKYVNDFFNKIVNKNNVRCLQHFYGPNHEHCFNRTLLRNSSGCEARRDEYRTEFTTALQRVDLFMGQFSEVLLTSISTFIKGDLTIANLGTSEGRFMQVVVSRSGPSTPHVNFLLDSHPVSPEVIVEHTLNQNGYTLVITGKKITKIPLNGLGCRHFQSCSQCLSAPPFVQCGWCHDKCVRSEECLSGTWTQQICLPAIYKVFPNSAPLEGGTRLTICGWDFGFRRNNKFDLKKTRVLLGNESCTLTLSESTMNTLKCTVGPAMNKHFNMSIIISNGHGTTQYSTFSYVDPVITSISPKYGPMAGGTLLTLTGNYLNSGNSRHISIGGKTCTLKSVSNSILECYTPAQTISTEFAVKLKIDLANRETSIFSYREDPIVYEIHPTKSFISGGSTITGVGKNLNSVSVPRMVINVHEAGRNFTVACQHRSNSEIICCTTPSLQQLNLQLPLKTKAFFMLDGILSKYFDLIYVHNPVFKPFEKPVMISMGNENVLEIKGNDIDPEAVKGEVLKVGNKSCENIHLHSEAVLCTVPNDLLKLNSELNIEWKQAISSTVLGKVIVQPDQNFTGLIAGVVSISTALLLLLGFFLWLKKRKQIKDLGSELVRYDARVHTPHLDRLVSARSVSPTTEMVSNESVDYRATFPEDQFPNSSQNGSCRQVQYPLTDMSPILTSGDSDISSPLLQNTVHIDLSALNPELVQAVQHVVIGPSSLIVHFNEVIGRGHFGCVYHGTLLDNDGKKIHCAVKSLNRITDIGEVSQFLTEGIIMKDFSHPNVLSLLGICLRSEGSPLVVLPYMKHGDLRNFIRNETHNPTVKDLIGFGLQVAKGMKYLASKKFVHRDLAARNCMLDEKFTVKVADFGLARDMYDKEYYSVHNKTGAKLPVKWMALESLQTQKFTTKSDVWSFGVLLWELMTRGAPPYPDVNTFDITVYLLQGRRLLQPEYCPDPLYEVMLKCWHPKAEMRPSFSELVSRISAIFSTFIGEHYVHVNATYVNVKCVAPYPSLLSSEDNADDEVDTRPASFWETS

The assay concerns the target T1, c-Met kinase (recombinant c-Met) (Homo sapiens, UniProt P08581).
T1 construct: 0.27 nM recombinant c-Met
The assay is described as follows: In vitro kinase assay I (homogeneous time-resolved fluorescence tyrosine kinase assay). The format is biochemical. The procedure, abridged: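 Biotinylated peptide (0.5 μM) phosphorylated by 0.2 nM recombinant c-Met with 50 μM MgATP, 60 min at room temperature, pH 7.4, 5% DMSO. EDTA stop; HTRF read with Eu-anti-phosphotyrosine antibody and streptavidin-APC. IC50 from 4-parameter logistic fit.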
Turning to `CCn1cc(-n2ccc(=O)c(C(C)c3cccc(-c4ncc(OCc5cc(C)no5)cn4)c3)n2)cn1` (single isomer, unassigned) [Example 301, 1-(1-ethyl-1H-pyrazol-4-yl)-3-[(1R or S)-1-(3-{5-[(3-methylisoxazol-5-yl)methoxy]pyrimidin-2-yl}phenyl)ethyl]pyridazin-4(1H)-one], the IC50 is less than 100 nM. Regarding `CCn1cc(-n2ccc(=O)c(C(C)c3cccc(-c4ncc(OCc5noc(C)n5)cn4)c3)n2)cn1` (single isomer, unassigned) [Example 302, 1-(1-ethyl-1H-pyrazol-4-yl)-3-[(1R or S)-1-(3-{5-[(5-methyl-1,2,4-oxadiazol-3-yl)methoxy]pyrimidin-2-yl}phenyl)ethyl]pyridazin-4(1H)-one], the IC50 is less than 100 nM. Next, `CCn1cc(-n2ccc(=O)c(C(C)c3cccc(-c4ncc(OCCn5cccn5)cn4)c3)n2)cn1` (single isomer, unassigned) [Example 303, 1-(1-ethyl-1H-pyrazol-4-yl)-3-[(1R or S)-1-(3-{5-[2-(1H-pyrazol-1-yl)ethoxy]pyrimidin-2-yl}phenyl)ethyl]pyridazin-4(1H)-one]: less than 100 nM; `CCn1cc(-n2ccc(=O)c(C(C)c3cccc(-c4ncc(OCC5(C)COC5)cn4)c3)n2)cn1` (single isomer, unassigned) [Example 304, 1-(1-ethyl-1H-pyrazol-4-yl)-3-[(1R or S)-1-(3-{5-[(3-methyloxetan-3-yl)methoxy]pyrimidin-2-yl}phenyl)ethyl]pyridazin-4(1H)-one]: less than 100 nM; `CCn1cc(-n2ccc(=O)c(C(C)c3cccc(-c4ncc(OC)cn4)c3)n2)cn1` (single isomer, unassigned) [Example 332, 1-(1-ethyl-1H-pyrazol-4-yl)-3-{(1S or R)-1-[3-(5-methoxypyrimidin-2-yl)phenyl]ethyl}pyridazin-4(1H)-one]: 100 to 1000 nM. Turning to `CCn1cc(-n2ccc(=O)c(C(C)c3cccc(-c4ncc(OC)cn4)c3)n2)cn1` (single isomer, unassigned) [Example 333, 1-(1-ethyl-1H-pyrazol-4-yl)-3-{(1R or S)-1-[3-(5-methoxypyrimidin-2-yl)phenyl]ethyl}pyridazin-4(1H)-one], the IC50 was less than 100 nM. As to `CCn1cc(-n2ccc(=O)c(C(C)c3cccc(-c4ncc(OCC5(F)CCNCC5)cn4)c3)n2)cn1` (single isomer, unassigned) [Example 338, 1-(1-ethyl-1H-pyrazol-4-yl)-3-[(1R or S)-1-(3-{5-[(4-fluoropiperidin-4-yl)methoxy]pyrimidin-2-yl}phenyl)ethyl]pyridazin-4(1H)-one], the IC50 is less than 100 nM. `CCn1cc(-n2ccc(=O)c(C(C)c3cccc(-c4ncc(OCC5CCNCC5)cn4)c3)n2)cn1` (single isomer, unassigned) [Example 339, 1-(1-ethyl-1H-pyrazol-4-yl)-3-((1R or S)-1-{3-[5-(piperidin-4-ylmethoxy)pyrimidin-2-yl]phenyl}ethyl)pyridazin-4(1H)-one]: the IC50 was less than 100 nM. Turning to `CCn1cc(-n2ccc(=O)c(C(C)c3cccc(-c4ncc(OC5CNC5)cn4)c3)n2)cn1` (single isomer, unassigned) [Example 340, 3-((1R or S)-1-{3-[5-(azetidin-3-yloxy)pyrimidin-2-yl]phenyl}ethyl)-1-(1-ethyl-1H-pyrazol-4-yl)pyridazin-4(1H)-one], the half-inhibitory concentration (IC50) is less than 100 nM.

For the compound `CC(c1cccc(-c2ncc(O[C@@H]3CCNC[C@H]3F)cn2)c1)c1nn(-c2cnn(C)c2)ccc1=O` (single isomer, unassigned) [Example 341, 3-{(1R or S)-1-[3-(5-{[(3R or S,4R or S)-3-Fluoropiperidin-4-yl]oxy}pyrimidin-2-yl)phenyl]ethyl}-1-(1-methyl-1H-pyrazol-4-yl)pyridazin-4(1H)-one], the IC50 was less than 100 nM. For `CC(c1cccc(-c2ncc(O[C@@H]3CCNC[C@H]3F)cn2)c1)c1nn(-c2cnn(C)c2)ccc1=O` (single isomer, unassigned) [Example 342, 3-{(1R or S)-1-[3-(5-{[(3R or S, 4R or S)-3-fluoropiperidin-4-yl]oxy}pyrimidin-2-yl)phenyl]ethyl}-1-(1-methyl-1H-pyrazol-4-yl)pyridazin-4(1H)-one], the IC50 is less than 100 nM. In the case of `CC(c1cccc(-c2ncc(O[C@@H]3CCNC[C@H]3F)cn2)c1)c1nn(-c2cnn(C)c2)ccc1=O` (single isomer, unassigned) [Example 343, 3-{(1R or S)-1-[3-(5-{[(3R or S, 4R or S)-3-fluoropiperidin-4-yl]oxy}pyrimidin-2-yl)phenyl]ethyl}-1-(1-methyl-1H-pyrazol-4-yl)pyridazin-4(1H)-one], the IC50 was in the range of 100 to 1000 nM. For the compound `O=c1ccn(-c2ccc(F)c(F)c2)nc1Cc1cccc(-c2ncc(OCC3COCCO3)cn2)c1` (single isomer, unassigned) [Example 345, 1-(3,4-difluorophenyl)-3-(3-{5-[(2R or S)-1,4-dioxan-2-ylmethoxy]pyrimidin-2-yl}benzyl)pyridazin-4(1H)-one], the IC50 was less than 100 nM. Turning to `O=c1ccn(-c2ccc(F)c(F)c2)nc1Cc1cccc(-c2ncc(OCC3COCCO3)cn2)c1` (single isomer, unassigned) [Example 346, 1-(3,4-difluorophenyl)-3-(3-{5-[(2S or R-1,4-dioxan-2-ylmethoxy]pyrimidin-2-yl}benzyl)pyridazin-4(1H)-one], the IC50 was less than 100 nM. Turning to `Cn1cc(-n2ccc(=O)c(Cc3cccc(-c4ncc(OCC5COCCO5)cn4)c3)n2)cn1` (single isomer, unassigned) [Example 347, 3-(3-{5-[(2R or-S)-1,4-dioxan-2-ylmethoxy]pyrimidin-2-yl}benzyl)-1-(1-methyl-1H-pyrazol-4-yl)pyridazin-4(1H)-one], the IC50 is less than 100 nM. `Cn1cc(-n2ccc(=O)c(Cc3cccc(-c4ncc(OCC5COCCO5)cn4)c3)n2)cn1` (single isomer, unassigned) [Example 348, 3-(3-{5-[(2S or R)-1,4-dioxan-2-ylmethoxy]pyrimidin-2-yl}benzyl)-1-(1-methyl-1H-pyrazol-4-yl)pyridazin-4(1H)-one]: the IC50 was less than 100 nM.

As for `O=c1ccn(-c2ccc(F)c(F)c2)nc1Cc1cccc(-c2ncc(OC3CCOC3)cn2)c1` (single isomer, unassigned) [Example 349, 1-(3,4-difluorophenyl)-3-(3-{5-[(3R or S)-tetrahydrofuran-3-yloxy]pyrimidin-2-yl}benzyl)pyridazin-4(1H)-one], the IC50 is less than 100 nM. With `O=c1ccn(-c2ccc(F)c(F)c2)nc1Cc1cccc(-c2ncc(OC3CCOC3)cn2)c1` (single isomer, unassigned) [Example 350, 1-(3,4-difluorophenyl)-3-(3-{5-[(3S or R)-tetrahydrofuran-3-yloxy]pyrimidin-2-yl}benzyl)pyridazin-4(1H)-one], the IC50 is less than 100 nM. Regarding `O=c1ccn(-c2ccc(F)c(F)c2)nc1Cc1cccc(-c2ncc(OCC3CCOC3)cn2)c1` (single isomer, unassigned) [Example 351, 1-(3,4-difluorophenyl)-3-(3-{5-[(3R or S)-tetrahydrofuran-3-ylmethoxy]pyrimidin-2-yl}benzyl)pyridazin-4(1H)-one], the IC50 was less than 100 nM. With `O=c1ccn(-c2ccc(F)c(F)c2)nc1Cc1cccc(-c2ncc(OCC3CCOC3)cn2)c1` (single isomer, unassigned) [Example 352, 1-(3,4-difluorophenyl)-3-(3-{5-[(3S or R)-tetrahydrofuran-3-ylmethoxy]pyrimidin-2-yl}benzyl)pyridazin-4(1H)-one], the IC50 is less than 100 nM. Next, `C[C@@H](O)[C@@H](C)Oc1cnc(-c2cccc(Cc3nn(-c4cnn(C)c4)ccc3=O)c2)nc1` (single isomer, unassigned) [Example 374]: less than 100 nM; `C[C@H](O)[C@H](C)Oc1cnc(-c2cccc(Cc3nn(-c4cnn(C)c4)ccc3=O)c2)nc1` (single isomer, unassigned) [Example 375]: less than 100 nM; `C[C@H](O)[C@@H](C)Oc1cnc(-c2cccc(Cc3nn(-c4cnn(C)c4)ccc3=O)c2)nc1` (single isomer, unassigned) [Example 376]: less than 100 nM.

For the compound `C[C@H](Oc1cnc(-c2cccc(Cc3nn(-c4cnn(C)c4)ccc3=O)c2)nc1)[C@@H](C)O` (single isomer, unassigned) [Example 377], the IC50 was less than 100 nM.

For the compound `Cn1cc(-n2ccc(=O)c(Cc3cccc(-c4ncc(O[C@@H]5CCC[C@H]5O)cn4)c3)n2)cn1` (single isomer, unassigned) [Example 378], the IC50 is less than 100 nM. Regarding `Cn1cc(-n2ccc(=O)c(Cc3cccc(-c4ncc(O[C@H]5CCC[C@@H]5O)cn4)c3)n2)cn1` (single isomer, unassigned) [Example 379], the IC50 is less than 100 nM. To `CC(c1cccc(-c2ncc(OCC(C)(C)O)cn2)c1)c1nn(-c2cnn(C)c2)ccc1=O` (single isomer, unassigned) [Example 380, 3-((1S or R)-1-{3-[5-(2-hydroxy-2-methylpropoxy)pyrimidin-2-yl]phenyl}ethyl)-1-(1-methyl-1H-pyrazol-4-yl)pyridazin-4(1H)-one] belongs less than 100 nM; to `CC(c1cccc(-c2ncc(OCC(C)(C)O)cn2)c1)c1nn(-c2cnn(C)c2)ccc1=O` (single isomer, unassigned) [Example 381, 3-((1R or S)-1-{3-[5-(2-hydroxy-2-methylpropoxy)pyrimidin-2-yl]phenyl}ethyl)-1-(1-methyl-1H-pyrazol-4-yl)pyridazin-4(1H)-one], less than 100 nM. For the compound `CC(c1cccc(-c2ncc(OC(C)C(C)(C)O)cn2)c1)c1nn(-c2cnn(C)c2)ccc1=O` (single isomer, unassigned) [Example 382, 3-{(1R or S)-1-[3-(5-{[(1R or S)-2-hydroxy-1,2-dimethylpropyl]oxy}pyrimidin-2-yl)phenyl]ethyl}-1-(1-methyl-1H-pyrazol-4-yl)pyridazin-4(1H)-one], the IC50 was less than 100 nM.
